pIC50: −log10 of the molar value.

The experiment has as its target T1, human IBAT (Homo sapiens, UniProt Q12908).
T1 construct: Bases 599 to 1645 correspond to the complete coding region of human IBAT; expressed in transfected cells
T1 sequence (Q12908 1-348): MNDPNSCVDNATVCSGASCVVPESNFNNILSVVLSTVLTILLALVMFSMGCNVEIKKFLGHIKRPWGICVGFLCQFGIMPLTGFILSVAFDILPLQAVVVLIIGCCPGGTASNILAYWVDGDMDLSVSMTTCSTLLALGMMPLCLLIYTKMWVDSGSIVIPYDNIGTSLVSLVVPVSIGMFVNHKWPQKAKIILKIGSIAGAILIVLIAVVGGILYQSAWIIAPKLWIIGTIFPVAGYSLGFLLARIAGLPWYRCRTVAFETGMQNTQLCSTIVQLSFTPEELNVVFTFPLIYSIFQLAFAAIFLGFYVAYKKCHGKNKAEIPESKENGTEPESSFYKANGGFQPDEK
The experiment in a line: in vitro IBAT inhibition assay: IBAT-dependent uptake of [3H]-taurocholic acid into CHO-hIBAT cells. It is filed as cell-based. Particulars: taurocholic acid 10 μM, 60 min at room temperature, read-out: IC-50 (human IBAT). From the text:
Preparation and procedure for the in vitro IBAT inhibition assay:
1. Cloning of an Expression Vector for Human IBAT
The cDNA (complementary deoxyribonucleic acid) of human IBAT was cloned by standard methods of molecular biology as described for example in Molecular Cloning: A Laboratory Manual by Joseph Sambrook and David Russell, and introduced into the pcDNA1 vector from Invitrogen. […] Bases 599 to 1645 correspond to the complete coding region of human IBAT.
2. Preparation of a Recombinant Cell Line with Constitutive Expression of Human IBAT
The expression vector for human IBAT was introduced by stable transfection into CHO (chinese hamster ovary) cells. To select single cell clones, 400 μg/ml Geneticin was added to the cell culture medium (Ham's F12 medium supplemented with 10% fetal calf serum, 100 units/ml penicillin, 100 units/ml streptomycin). The functionality of the single cell clones resulting from the selection was assayed via their uptake activity for radiolabeled taurocholic acid ([^3H]-TCA). The cell clone with the highest uptake activity for [^3H]-TCA, referred to hereinafter as CHO-hIBAT, was selected for the further assays and further cultured in the presence of 400 μg/ml Geneticin.
3. Measurement of the Inhibitory Effect of the Compound of the Invention on the IBAT-Dependent Uptake of Taurocholic Acid into Cells
CHO-hIBAT cells were seeded in a concentration of 40 000 cells per well in poly-D-lysine-coated 96-well plates in cell culture medium and cultured for 24 h. The cells were then washed once with sodium-free transport assay buffer (140 mM choline chloride, 2 mM potassium chloride, 1 mM magnesium chloride, 1 mM calcium chloride, 10 mM HEPES/Tris, pH 7.5) and subsequently incubated either with sodium-free transport assay buffer as negative control or with sodium-containing transport assay buffer (140 mM sodium chloride, 2 mM potassium chloride, 1 mM magnesium chloride, 1 mM calcium chloride, 10 mM HEPES/Tris, pH 7.5) as positive control at room temperature for 30 min. At the same time, the assay wells were also incubated in the presence of the compound to be investigated in varying concentration in sodium-containing transport assay buffer at room temperature for 30 min. The test substances were appropriately diluted in transport assay buffer (40 μl/well) starting from a 10 mM stock solution in dimethyl sulfoxide. The assay was then started by adding 10 μl/well of a mixture of radiolabeled taurocholic acid ([^3H]-TCA) and unlabeled taurocholic acid. The final concentration of taurocholic acid in the assay was 10 μM. After an incubation time of 60 min at room temperature, the reaction was stopped by adding 100 μl/well sodium-free transport assay buffer (4° C.), and each well was washed three times with sodium-free transport assay buffer. Finally, 100 μl of scintillation fluid were added to each well, and the radioactivity taken up into the cells was determined in a MicroBeta Scintillation Microplate Reader from Wallac.
The half-maximum inhibitory effect of the test compound (IC50 value, inhibitory concentration 50) was determined in the following way: • 1. Determination of the value for 0% inhibition. This is the measurement in the absence of substance, measured in sodium-containing transport assay buffer. • 2. Determination of the value for 100% inhibition. This is the measurement in the absence of substance, measured in sodium-free transport assay buffer. • 3. […]
Turning to `CCCC[C@]1(CC)CS(=O)(=O)c2ccc(N(C)C)cc2[C@@H](c2cccc(NC(=O)N[C@@H]3O[C@H](CO)[C@@H](F)[C@H](O)[C@H]3O)c2)[C@H]1O` [Example 1], the pIC50 was 8.19. The figure for `CCCC[C@]1(CC)CS(=O)(=O)c2ccc(N(C)C)cc2[C@@H](c2cccc(NC(=O)N[C@@H]3O[C@H](COS(=O)(=O)O)[C@@H](F)[C@H](O)[C@H]3O)c2)[C@H]1O` [Example 2] is 8.41.

For `CCCC[C@]1(CC)CS(=O)(=O)c2ccc(N(C)C)cc2[C@@H](c2cccc(NC(=O)N[C@@H]3O[C@H](CO)C(F)(F)[C@H](O)[C@H]3O)c2)[C@H]1O` [Example 3], the pIC50 was 8.28. Then `CCCC[C@]1(CC)CS(=O)(=O)c2ccc(N(C)C)cc2[C@@H](c2cccc(NC(=O)N[C@@H]3O[C@H](COS(=O)(=O)O)C(F)(F)[C@H](O)[C@H]3O)c2)[C@H]1O` [Example 4], with 8.44; and `CCCC[C@]1(CC)CS(=O)(=O)c2ccc(N(C)C)cc2[C@@H](c2cccc(NC(=O)N[C@@H]3O[C@H](CS(=O)(=O)O)[C@@H](F)[C@H](O)[C@H]3O)c2)[C@H]1O` [Example 5], with 8.25.

The record behind these values is patent publication US8101583B2, “1,4-benzothiepin-1,1-dioxide derivatives which are substituted with fluorine, method for producing the same, drugs containing said compounds and use thereof” (Sanofi-Aventis Deutschland GmbH, priority 2006, dated 2012).
